Data on eight compounds can be found in patent US20160089439A1, “Prevention of Illicit Manufacutre of Methamphetamine from Pseudoephedrine Using Food Flavor Excipients” (Satara Pharmaceuticals, LLC, priority 2014, published 2016).

By LD50 is commonly meant the dose at which mortality reaches 50%.

Data set [1] can be described thus: Reaction of excipient and pseudoephedrine with lithium in liquid ammonia, methamphetamine quantified. The note with it: for Relative percentage of methamphetamine formation, Li—NH3 Reduction: excipient 1.0 mmol + pseudoephedrine 1.0 mmol, pseudoephedrine only = 100.
A short description of data set [2]: Reaction of excipient and pseudoephedrine with red phosphorous and hydriodic acid, methamphetamine quantified. The note with it: excipient 1.0 mmol + pseudoephedrine 1.0 mmol, 57% aqueous hydriodic acid, 90-100° C.; pseudoephedrine only = 100.
The conditions of data set [3]: species and route not given; cited from earlier work.

For `Cc1cnc(C)c(C)n1` [2,3,5-Trimethylpyrazine], the “Relative percentage of methamphetamine formation, Li—NH3 Reduction” value (“Relative percentage … Li—NH3 Reduction” for short) in data set [1] stood at 8%. In addition, the “Relative percentage of methamphetamine formation, P—HI Reduction” value (from here on “Relative percentage … P—HI Reduction”) in data set [2] is given as 20%.

With `CC(=O)c1nccs1` [2-Acetylthiazole], the “Relative percentage … Li—NH3 Reduction” value in data set [1] is listed as under 1%.

For `CCOc1cnc(C)cn1` [2-Ethoxy-5-methylpyrazine], in data set [1], the “Relative percentage … Li—NH3 Reduction” value was found to be 7%. Moreover, the “Relative percentage … P—HI Reduction” value in data set [2] is 15%.

For `CCOc1cncc(C)n1` [2-Ethoxy-6-methylpyrazine], the “Relative percentage … Li—NH3 Reduction” value in data set [1] is 4%. For the same compound, the “Relative percentage … P—HI Reduction” value in data set [2] is on record as 13%.

As for `COc1nccnc1CC(C)C` [2-Isobutyl-3-methoxypyrazine], the “Relative percentage … Li—NH3 Reduction” value in data set [1] was found to be 2%. In addition, in data set [2], the “Relative percentage … P—HI Reduction” value was determined as 27%.

Consider `COc1nccnc1C` [2-Methoxy-3-methylpyrazine], for which the “Relative percentage … Li—NH3 Reduction” value in data set [1] is under 1%. Further, the “Relative percentage … P—HI Reduction” value in data set [2] was determined as 2.0%.

On to `CC(=O)c1cnccn1` [Acetylpyrazine], for which the “Relative percentage … Li—NH3 Reduction” value in data set [1] is reported as <<1%. Also, the “Inhibiting the conversion of pseudoephedrine to methamphetamine (in words)” value in data set [1] (summary of Table 1, both Li—NH3 and P—HI reductions) was “most effective among all of the pyrazine derivatives tested”. Besides, the “Relative percentage … P—HI Reduction” value in data set [2] is recorded as 6%. For the same compound, the LD50 in data set [3] was over 4000 mg/kg.

Consider `CC(C)COC(=O)c1ccccc1N` [Isobutyl anthranilate], for which the “Relative percentage … Li—NH3 Reduction” value in data set [1] was under 1%. In data set [2], the “Relative percentage … P—HI Reduction” value is given as 2.3%.
